Data: patent publication US11666554B2, “Use of a carbamate compound to prevent, alleviate or treat visceralgia or pain arising from visceral disease” (SK BIOPHARMACEUTICALS CO., LTD., priority 2017, dated 2023)
Marks after values point to notes of the source that are not given here.

Test system: Male ICR mice
Assay: Acetic acid-induced writhing test
Type: in vivo
Conditions: for Number of writhing: mean ± standard error
Description: As a representative animal experimental model widely used to confirm the analgesic effect on visceral pain, an acetic acid-induced writhing test is used [T. J. Ness, Models of Visceral Nociception (1999) ILAR Journal 40: 119-128]. At this time, acetic acid is a chemical that is a stimulus used to induce pain, and when it is injected into the abdominal cavity of the mouse, characteristic writhing pain behaviors are induced in which due to the inflammatory pain caused in the peritoneum the mouse stretches both the forelimbs and the hind legs, and touches the abdomen to the floor or twists. However, when a drug having an analgesic effect, such as morphine, is injected into a mouse, the writhing pain behaviors of the mouse is reduced. As such, the degree of decreasing the writhing pain behaviors is measured to confirm the analgesic effect of the drug.
Male ICR mice (body weight: 24 to 30 g) were used in this experiment. The experimental animals were maintained at a light-and-darkness cycle of 12 hours, a temperature of 22 to 25° C., a relative humidity of 40 to 60%, and free access to water and food. For stabilization of animal behavior, the experimental animals were allowed to acclimate to the laboratory conditions for at least 1 hour before the test.
As a vehicle serving as the negative control, 30% PEG400 (v/v) was used, and Test Compound was dissolved in the vehicle and administered orally at doses of 3, 10 and 30 mg/kg. Morphine which is the positive control was dissolved in saline and administered subcutaneously at a dose of 10 mg/kg. The final dose of solution was 10 ml/kg.
After 1 hour of oral administration of the vehicle and Test Compound or 30 minutes after subcutaneous administration of morphine, the mice were gently restrained, and 0.8% (v/v) acetic acid solution was administered intraperitoneally to the abdomen of the mice. The mice were immediately returned to the observation box, and the number of writhing pain behaviors of the mice for 10 minutes was recorded.
The effect of the compound was expressed as the mean±standard error, and statistical significance was recognized when data differed by p<0.05 using one-way ANOVA and Dunnett's test.

Structure (SMILES) | Suppression rate compared to negative control (10 mg/kg s.c.) | Number of writhing (10 mg/kg s.c., 30 minutes before i.p. 0.8% acetic acid) | Suppression rate compared to negative control (10 mg/kg s.c., listed as morphine) | Suppression rate compared to negative control (3 mg/kg p.o.) | Number of writhing (3 mg/kg p.o., 1 hour before i.p. 0.8% acetic acid) | Suppression rate compared to negative control (10 mg/kg p.o.) | Number of writhing (10 mg/kg p.o., 1 hour before i.p. 0.8% acetic acid) | Suppression rate compared to negative control (30 mg/kg p.o.) | Number of writhing (30 mg/kg p.o., 1 hour before i.p. 0.8% acetic acid)
CN1CC[C@]23c4c5ccc(O)c4O[C@H]2[C@@H](O)C=C[C@H]3[C@H]1C5 [Morphine, reference compound] | 98.2% | 0.4 ± 0.3^1) writes/10 minutes | 98.2% |  |  |  |  |  | 
NC(=O)O[C@@H](Cn1ncnn1)c1ccccc1Cl [Test Compound, Carbamic acid (R)-1-(2-chlorophenyl)-2-tetrazol-2-yl-ethyl ester] |  |  |  | 25.8% | 17.3 ± 2.6 writes/10 minutes | 66.1% | 7.9 ± 2.4^1) writes/10 minutes | 100% | 0.0 ± 0.0^1) writes/10 minutes
